Patent publication US9023806B2, “Peptide capable of altering tubulin polymerization and use thereof for inhibiting cell proliferation” (Universite d'Angers, priority 2004, dated 2015)
Entries after “also recorded” stand apart in the source; their conditions may differ.

Assays:
[1] = test system: tubulin; assay: Peptide-on-membrane chip blot overlay with purified tubulin; assay type: binding, mice; conditions: purified tubulin overnight at 4° C., anti-βIII tubulin antibody
Source text: Peptide chips corresponding to the NFL, NFM and NFH neurofilament subunits were obtained according to Frank et al., 1992, with an ASP 222 automat spot robot. Each neurofilament sequence was divided into sequences of 15 amino acids.
These peptides overlap 12 amino acids of the next peptide. The overlapping peptides were synthesized on spots, like a chip, on a specially produced cellulose membrane (AIMS scientific product, GmbH, Braunschweig, Germany). The peptides are bound to the membrane with a polyethylene glycol bridge owing to their carboxy-terminal amino acid. The synthetic procedure followed is that of Frank et al., 1996.
Alternatively, the strips that were detected were cut out and analyzed by mass spectrometry. The peptide-on-membrane chip was incubated overnight at 4° C. with purified tubulin. After extensive washing with TBS (1×) the membranes were incubated with anti-βIII-tubulin antibodies in order to detect the amino acid sequences that interact with tubulin.
In order to identify the sequences responsible for the binding of tubulin to the neurofilaments, we use peptide-on-membrane chips, corresponding to the three neurofilament subunits (see experimental procedures). This method makes it possible to identify the binding domain involved in protein-protein interaction. […] The NFL subunit contains two tubulin binding sequences of 24 amino acids which we call NFL-TBS1 and NFL-TBS2 whereas NFM-TBS and NFH-TBS both contain 39 amino acids (FIG. 2A). […]

[2] = test system: tubulin; assay: Spectrophotometric (turbidimetry, OD 350 nm) analysis of microtubule polymerization; assay type: biochemical, mice; conditions: for influence on polymerization of microtubules (inhibition or activation): in vitro turbidimetry
Protocol: The alteration of tubulin polymerization is measured by measuring the turbidity (optical density at 350 nm) of a tubulin suspension. A decrease in turbidity of at least 1% is a sign of inhibition of tubulin polymerization.
The polymerization of tubulin from the supernatant S3 of a microtubule preparation was investigated by turbidimetry. Briefly, the supernatant S3 (3 mg/ml) was incubated at 37° C. in the presence of 1 mM of GTP in a Helios α thermospectronic spectrophotometer to monitor the variations in optical density at 350 nm.
To test this hypothesis, we conducted turbidimetry experiments with the various peptide sequences identified by blot overlay on the peptide chip. For this purpose, the supernatant S3 (containing free tubulin), obtained from a microtubule preparation, was polymerized at 37° C. in the presence of 1 mM GTP and several concentrations (3, 10, 30, and 100 μM) of tubulin binding peptide, which were added before polymerization (t=0).
As previously for the NF-TBS peptides, studies of the influence of the peptides of vimentin, cytokeratin and GFAP identified by peptide chip on the assembly of microtubules in vitro were carried out by the same technique as described previously in the Material and Method section (Spectrophotometric analysis of microtubule polymerization) in Example 1.

[3] = test system: T98G cells; assay: FACS (flow cytometry) cell cycle analysis; assay type: cell-based
Source text: (B-B′): Analysis by flow cytometry of control cells and cells treated with the peptides SEQ ID No. 6.
The microtubules constitute an important component of the achromatic spindle. To determine whether the presence of peptides SEQ ID No. 6 could affect cell division, the inventors usually carry out a FACS (Fluorescence Activated Cell Sorter) analysis to compare the distribution of the cycles of control cells and T98G cells treated with 10 μm of peptide SEQ ID No. 6.
In order to determine how a peptide that is an activator of microtubule polymerization affects cell division, a FACS analysis was carried out to compare the distribution of the cycles of untreated T98G cells (without peptide) or treated with 100 μm of peptide GFAP-TBS1 (SEQ ID No. 26), by the same protocol as that described in Example 2.

[4] = test system: T98G cells; assay: Peptide uptake and in-situ microtubule network by immunofluorescence; assay type: cell-based; conditions: 6 hours
Protocol: (A-A′-A″): The T98G cells are treated with the peptides SEQ ID No. 6 (10 μM) for 6 hours and the microtubules are then detected using an anti-tubulin antibody (red) and the biotinylated peptides SEQ ID No. 6 are detected using Alexa-labeled avidin (green).
To determine whether they could also modify the in-situ assembly of microtubules, T98G cells were incubated with 10 μm of biotinylated peptides SEQ ID No. 6. After incubation for 6 hours, more than 75% of the cells contain the peptide (FIG. 8 A, A′, A″) and are characterized by an unusual spherical shape.

[5] = test system: T98G cells; assay: MTS cell proliferation test; assay type: cell-based
Source text: The effect of exposure of peptide SEQ ID No. 6 on cell proliferation was confirmed using MTS analysis (described in Cory A. H. et al., 1991, Cancer Commun. 3, 207-212, incorporated here by reference) in which the inventors observed fewer cells in the cultures treated with peptide SEQ ID No. 6 (FIG. 8C).

| Sequence | tubulin binding site detected on peptide chip [1] | influence on polymerization of microtubules (inhibition or activation) [2] | other results |
| --- | --- | --- | --- |
| AYRRVPTETRSSFSRVSGSPSSGFRSQSWSRGSPSTVSS (listed as Mus musculus) [NFM-TBS] | single binding sequence | – | – |
| FGYDPYFSTSYKRRYVETPRVHIS (listed as Mus musculus) [NFL-TBS1] | tubulin binding domains | – | – |
| GGAYVTRSSAVRLRSSVPGVRLLQ (listed as Mus musculus) [Vim-TBS2] | tubulin binding sites | activate microtubule polymerization | – |
| GSEVHTKKTVMIKTIETRDGE (listed as Mus musculus) [Des-TBS3] | tubulin binding sites | – | – |
| KSVSEGHLKRNIVVKTVEMRD (listed as Mus musculus) [GFAP-TBS3] | tubulin binding sites | inhibitors of microtubule polymerization | – |
| MERRRITSARRSYASETVVRGLGP (listed as Mus musculus) [GFAP-TBS1] | tubulin binding sites | activate microtubule polymerization | cell cycle effect compared with control cells ([3]; 100 μM, 36 hours): strong stopping in phase G1; also recorded: inhibits cell division |
| MSIRVTQKSYKMSTSGPRAFSSRSFTSGPGARISSSSFSRVGSSSSSFRGSMGT (listed as Mus musculus) [Ker-TBS1] | tubulin binding sites | activate microtubule polymerization | – |
| MSQAYSSSQRVSSYRRTFGGAPGFSLG (listed as Mus musculus) [Des-TBS1] | tubulin binding sites | – | – |
| MSTRSVSSSSYRRMFGGS (listed as Mus musculus) [Vim-TBS1] | tubulin binding sites | – | – |
| QIKSLNNKFASFIDKVRFLEQ (listed as Mus musculus) [Ker-TBS2] | tubulin binding sites | – | – |
| RSAAGSSSGFHSWARTSVSSVSASPSRFRGAASSTDSLD (listed as Mus musculus) [NFH-TBS] | single binding sequence | – | – |
| SAGGSNTFSRTTKAVVVKKIETRDGKLVSE (listed as Mus musculus) [Ker-TBS3] | tubulin binding sites | – | – |
| SLPLVDTHSKRTLLIKTVETR (listed as Mus musculus) [Vim-TBS3] | tubulin binding sites | inhibitors of microtubule polymerization | – |
| SSPVFPRAGFGTKGSSSSMTSRVYQVSRTSGGAGGLGSLRSSRLGTTRAPSYGA (listed as Mus musculus) [Des-TBS2] | tubulin binding sites | – | – |
| VRGLGPSRQLGTMPRFSLSRMTPPLPARVDFSLAGA (listed as Mus musculus) [GFAP-TBS2] | tubulin binding sites | – | – |
| YSSYSAPVSSSLSVRRSYSSSSGS (listed as Mus musculus) [NFL-TBS2] | tubulin binding domains | powerful effect; also recorded: inhibitors of microtubule polymerization | inhibition of tubulin polymerization ([2]; 100 μM peptide, supernatant S3, 37° C., 1 mM GTP): 100%; microtubule network in cells containing the peptide ([4]; 10 μM, anti-tubulin antibody, listed as SEQ ID No. 6): lack a typical microtubule network; also recorded: disunited network of microtubules; cells containing the peptide ([4]; biotinylated peptide, 10 μm): more than 75%; cell cycle effect compared with control cells ([3]; 10 μM, 48 hours): strong stopping in phase G1; cells in phase G1 of mitosis ([3]; 10 μm peptide, culture for 48 hours (untreated 39%)): 61%; proliferation of T98G cells relative to untreated control ([5]; 10 μM for 48 hours, listed as SEQ ID No. 6): greatly reduced; also recorded: fewer cells; degradation or elimination of peptide during culture ([5]; inferred from comparison with medium replaced at 24 hours): little (if any) degradation or elimination; inhibition of the increase in number of cells ([5]; medium containing peptide replaced at 24 hours, data not shown): clearly observed |
